According to ChEMBL document CHEMBL1201862, “PubChem BioAssay data set” (2004):
Each block holds one compound with its values, some of them ahead of it. The source made the active and inactive calls. Unless noted, the calls are words filed in the database; no cut-off is given here.

How the values were obtained:
[1] = activation of PKA-R1A holoenzyme dissociation, dose response, counter-screen for PKA-R2B activator project, biochemical, Cy5-IP20 fluorescence polarization, 1536-well, triplicate (AID 504896)
[2] = Fluorescence polarization-based biochemical high throughput dose response assay for activators of the Protein Kinase A-R2B (PKA-R2B) complex. [Related pubchem assays (depositor defined):AID504700, AID504704, AID504796, AID504797]
HEK293 [3] = assay: cytotoxicity in HEK293T NF-kB-Luc cells, SAR follow-up, cytotoxicity control for NF-kB activator project, cell-based, resazurin fluorescence (AID 493251); format: functional; conditions: Homo sapiens
Jurkat = assay: SAR Analysis of small molecule inhibitors of T-cell specific antigen receptor-induced NF-kB activation in a Jurkat cell line using a luminescence assay - Set 2. [Related pubchem assays (depositor defined):AID435003, AID435012, AID465]; format: functional, cell-based; conditions: Homo sapiens
HEK293 [4] = assay: SAR Analysis of small molecule inhibitors of T-cell specific antigen receptor-induced NF-kB activation in a HEK-293T cell line using a luminescence assay - Set 2. [Related pubchem assays (depositor defined):AID435003, AID435012, AID489026]; format: functional, cell-based; conditions: Homo sapiens
[5] = biological target: T1, Endoribonuclease toxin MazF (Escherichia coli K-12, UniProt P0AE70); assay: MazF toxin RNase activators, dose response, biochemical, fluorescence, single-stranded RNA substrate, uHTS hits (AID 588481); format: functional
[6] = biological target: T1, Endoribonuclease toxin MazF; assay: fluorescent RNA oligo signal without MazF, dose response, counter-screen for MazEF activator project, biochemical, fluorescence, single-stranded RNase substrate (AID 588502); format: functional
NIH3T3 = assay: cytotoxicity in NIH-3T3 fibroblasts, dose response, cytotoxicity control for antifungal drug resistance project, cell-based, Alamar Blue, fluconazole, dry powder (AID 488809); format: functional; conditions: Mus musculus
[7] = biological target: T2, Short transient receptor potential channel 4 (Mus musculus, UniProt Q9QUQ5); assay: TRPC4 inhibitor concentration-response, dose response, cell-based, HEK293 TRPC4/mu-opioid, DAMGO stimulus, Fluo-4 (AID 492994); format: functional
T2 sequence (Q9QUQ5 whole entry): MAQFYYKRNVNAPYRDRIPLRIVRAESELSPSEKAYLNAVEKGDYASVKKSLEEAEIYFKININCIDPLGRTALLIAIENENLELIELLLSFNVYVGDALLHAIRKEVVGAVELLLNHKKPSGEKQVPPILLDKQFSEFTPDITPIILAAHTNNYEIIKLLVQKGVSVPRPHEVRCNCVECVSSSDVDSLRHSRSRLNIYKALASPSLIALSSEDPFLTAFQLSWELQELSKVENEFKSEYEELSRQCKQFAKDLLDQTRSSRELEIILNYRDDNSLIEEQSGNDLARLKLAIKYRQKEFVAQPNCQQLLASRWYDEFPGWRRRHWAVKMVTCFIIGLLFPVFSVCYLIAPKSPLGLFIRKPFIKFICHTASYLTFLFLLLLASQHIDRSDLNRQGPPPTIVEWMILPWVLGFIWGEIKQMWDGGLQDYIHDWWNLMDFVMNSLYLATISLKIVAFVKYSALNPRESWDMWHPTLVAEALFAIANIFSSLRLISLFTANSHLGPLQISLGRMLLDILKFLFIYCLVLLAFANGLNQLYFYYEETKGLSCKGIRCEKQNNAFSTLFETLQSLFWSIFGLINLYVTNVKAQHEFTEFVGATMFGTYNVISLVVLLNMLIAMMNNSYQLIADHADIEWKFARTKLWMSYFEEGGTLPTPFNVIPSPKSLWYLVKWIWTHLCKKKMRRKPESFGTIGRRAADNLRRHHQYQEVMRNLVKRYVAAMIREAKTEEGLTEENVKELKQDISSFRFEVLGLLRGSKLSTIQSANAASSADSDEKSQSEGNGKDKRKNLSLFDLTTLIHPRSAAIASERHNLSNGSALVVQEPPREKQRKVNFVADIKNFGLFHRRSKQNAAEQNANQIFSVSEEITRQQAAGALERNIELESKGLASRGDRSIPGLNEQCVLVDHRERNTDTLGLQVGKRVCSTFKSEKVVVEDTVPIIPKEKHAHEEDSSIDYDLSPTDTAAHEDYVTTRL

[8] = biological target: T2, Short transient receptor potential channel 4; assay: SAR Analysis for the identification of selective inhibits of the transient receptor potential cation channel C4 (TRPC4): Automated Electrophysiology_2. [Related pubchem assays (depositor defined):AID2256]; format: functional
[9] = biological target: T3, Zinc finger protein mex-5 (Caenorhabditis elegans, UniProt Q9XUB2); assay: MEX-5/TCR-2 RNA interaction inhibitors, dose response, biochemical, C. elegans, fluorescence polarization (AID 1960)
T3 sequence (Q9XUB2 whole entry): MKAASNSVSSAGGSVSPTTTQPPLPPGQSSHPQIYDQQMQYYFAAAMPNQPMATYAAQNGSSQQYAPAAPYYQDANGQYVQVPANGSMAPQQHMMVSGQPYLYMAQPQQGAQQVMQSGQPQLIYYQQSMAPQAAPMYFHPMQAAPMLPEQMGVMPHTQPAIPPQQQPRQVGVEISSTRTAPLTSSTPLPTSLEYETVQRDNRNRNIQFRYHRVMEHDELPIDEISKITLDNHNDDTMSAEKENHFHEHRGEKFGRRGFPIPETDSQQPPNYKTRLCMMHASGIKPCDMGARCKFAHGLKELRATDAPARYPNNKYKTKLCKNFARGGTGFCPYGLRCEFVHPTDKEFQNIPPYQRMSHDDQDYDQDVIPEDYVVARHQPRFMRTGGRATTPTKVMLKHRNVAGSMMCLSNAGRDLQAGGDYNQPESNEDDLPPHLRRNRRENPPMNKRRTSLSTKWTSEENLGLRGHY

Keap1/Nrf2 = Keap1/Nrf2 (Homo sapiens, UniProt Q14145); assay: Keap1-Nrf2 protein-protein interaction inhibitors, dose response, biochemical, fluorescence polarization, cherry-picked samples (AID 588683)
[10] = biological target: T4, RNA-binding protein pos-1 (Caenorhabditis elegans, UniProt G5EF15); assay: inhibitors of POS-1/mex-3 RNA binding, dose response, biochemical, fluorescence polarization (AID 1964);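 further: purified POS-1 fused to maltose binding protein made in E. coli; potency of compounds blocking POS-1 binding to fluorescent RNA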
T4 sequence (G5EF15 whole entry): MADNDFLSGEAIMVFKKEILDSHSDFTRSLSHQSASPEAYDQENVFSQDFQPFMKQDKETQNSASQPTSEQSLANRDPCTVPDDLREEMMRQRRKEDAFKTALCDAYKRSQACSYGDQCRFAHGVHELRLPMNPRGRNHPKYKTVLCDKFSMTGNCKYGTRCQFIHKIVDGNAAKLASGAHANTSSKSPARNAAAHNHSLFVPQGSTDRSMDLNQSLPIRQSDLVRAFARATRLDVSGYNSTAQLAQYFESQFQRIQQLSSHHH

[11] = biological target: T5, Mannose-6-phosphate isomerase (Homo sapiens, UniProt P34949); assay: inhibitors of human PMI, primary screen, biochemical, fluorescence intensity, coupled assay (AID 1209)
T5 sequence (P34949 whole entry): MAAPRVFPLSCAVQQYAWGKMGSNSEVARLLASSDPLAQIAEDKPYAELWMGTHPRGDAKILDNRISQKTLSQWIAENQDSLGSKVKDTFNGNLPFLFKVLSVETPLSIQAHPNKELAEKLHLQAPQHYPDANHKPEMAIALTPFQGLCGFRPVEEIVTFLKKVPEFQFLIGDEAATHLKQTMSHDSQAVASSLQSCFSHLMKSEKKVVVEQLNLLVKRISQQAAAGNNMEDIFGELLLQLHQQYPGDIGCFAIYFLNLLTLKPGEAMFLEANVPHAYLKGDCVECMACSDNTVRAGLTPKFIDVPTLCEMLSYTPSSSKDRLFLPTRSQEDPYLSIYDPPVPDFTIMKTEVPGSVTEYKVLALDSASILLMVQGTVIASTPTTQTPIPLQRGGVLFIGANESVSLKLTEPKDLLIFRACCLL

[12] = biological target: T6, Apoptotic protease-activating factor 1 (Homo sapiens, UniProt O14727); format: functional
T6 sequence (O14727 whole entry): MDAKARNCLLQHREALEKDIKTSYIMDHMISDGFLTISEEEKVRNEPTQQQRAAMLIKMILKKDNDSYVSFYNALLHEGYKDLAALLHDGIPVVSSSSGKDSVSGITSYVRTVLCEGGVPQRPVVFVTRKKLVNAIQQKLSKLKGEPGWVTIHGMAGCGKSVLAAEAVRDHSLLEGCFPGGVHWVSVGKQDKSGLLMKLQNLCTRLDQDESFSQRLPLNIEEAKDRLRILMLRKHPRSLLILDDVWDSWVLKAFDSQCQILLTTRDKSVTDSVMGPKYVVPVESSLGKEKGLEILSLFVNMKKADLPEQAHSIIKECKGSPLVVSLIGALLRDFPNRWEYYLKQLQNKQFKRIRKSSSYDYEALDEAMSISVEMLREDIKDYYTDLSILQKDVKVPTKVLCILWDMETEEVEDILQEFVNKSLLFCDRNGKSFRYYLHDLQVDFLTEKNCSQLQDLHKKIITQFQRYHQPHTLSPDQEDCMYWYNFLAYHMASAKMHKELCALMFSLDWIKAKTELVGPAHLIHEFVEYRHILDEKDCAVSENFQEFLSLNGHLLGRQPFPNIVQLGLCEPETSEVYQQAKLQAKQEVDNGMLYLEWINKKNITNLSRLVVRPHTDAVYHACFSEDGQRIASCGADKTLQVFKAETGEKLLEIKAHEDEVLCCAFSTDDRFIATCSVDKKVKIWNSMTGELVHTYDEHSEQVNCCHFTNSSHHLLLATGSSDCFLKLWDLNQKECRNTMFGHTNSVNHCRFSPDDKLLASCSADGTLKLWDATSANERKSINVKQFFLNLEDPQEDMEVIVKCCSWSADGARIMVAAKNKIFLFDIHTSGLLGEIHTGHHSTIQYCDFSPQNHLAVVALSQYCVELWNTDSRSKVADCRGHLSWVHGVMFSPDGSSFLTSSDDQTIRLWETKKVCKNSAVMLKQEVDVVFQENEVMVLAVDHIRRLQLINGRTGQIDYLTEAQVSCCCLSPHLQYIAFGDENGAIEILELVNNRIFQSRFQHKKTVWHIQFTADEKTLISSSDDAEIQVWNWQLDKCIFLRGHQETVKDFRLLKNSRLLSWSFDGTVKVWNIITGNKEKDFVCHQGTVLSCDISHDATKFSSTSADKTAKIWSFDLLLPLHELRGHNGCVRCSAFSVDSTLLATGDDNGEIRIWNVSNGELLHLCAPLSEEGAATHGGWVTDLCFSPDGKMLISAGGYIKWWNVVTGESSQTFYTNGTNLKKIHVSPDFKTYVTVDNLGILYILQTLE

CHO = assay: cytotoxicity in TLR9-MyD88 CHO cells, dose response, cytotoxicity control for TLR9-MyD88 binding inhibitor project, cell-based, luminescence (AID 588339); format: functional, hamster; conditions: Cricetulus griseus;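 further: CHO cells stably coexpressing TLR9 and MyD88 fusions from primary screen; compound exposure lasted 48 hours before viability readout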
[13] = THP-1 cell cytotoxicity, dose response, cytotoxicity control for Vif-APOBEC3G degradation inhibitor project, THP-1 cells (AID 1117359); format: functional; conditions: Human immunodeficiency virus 1, THP-1
Protein Tat = biological target: T7, Protein Tat (Human immunodeficiency virus type 1 group M subtype B (isolate HXB2)(HIV-1), UniProt P04608); format: functional;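 further: tat binding to TAR RNA read out by fluorescence polarization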
T7 sequence (P04608 whole entry): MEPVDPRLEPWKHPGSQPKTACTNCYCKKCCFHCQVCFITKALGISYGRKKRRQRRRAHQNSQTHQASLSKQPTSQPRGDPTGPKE

Beta Lactamase = Beta Lactamase (Pseudomonas aeruginosa, UniProt Q932Y6); assay: beta-lactamase reporter inhibitor potency, dose response, artefact control for TLR9-MyD88 binding inhibitor project, BLA reporter cells, FRET fluorescence (AID 588341); format: cell-based;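 further: cell based assay in CHO-K1 cells stably expressing beta-lactamase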
Chain of Beta Lactamase (Q932Y6 whole entry): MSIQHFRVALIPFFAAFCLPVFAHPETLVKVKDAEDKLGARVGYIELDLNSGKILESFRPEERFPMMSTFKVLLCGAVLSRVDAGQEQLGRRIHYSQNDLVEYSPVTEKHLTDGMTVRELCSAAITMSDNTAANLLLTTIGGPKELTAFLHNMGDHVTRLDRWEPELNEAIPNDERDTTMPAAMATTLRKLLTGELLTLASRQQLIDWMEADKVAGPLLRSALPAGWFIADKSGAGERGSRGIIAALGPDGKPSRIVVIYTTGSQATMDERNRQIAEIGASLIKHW

T1 sequence (P0AE70 whole entry): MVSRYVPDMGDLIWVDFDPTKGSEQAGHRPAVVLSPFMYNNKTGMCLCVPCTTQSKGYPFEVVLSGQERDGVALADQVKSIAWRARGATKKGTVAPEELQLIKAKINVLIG
Chain of Keap1/Nrf2 (Q16236 whole entry, the tested form may be a part): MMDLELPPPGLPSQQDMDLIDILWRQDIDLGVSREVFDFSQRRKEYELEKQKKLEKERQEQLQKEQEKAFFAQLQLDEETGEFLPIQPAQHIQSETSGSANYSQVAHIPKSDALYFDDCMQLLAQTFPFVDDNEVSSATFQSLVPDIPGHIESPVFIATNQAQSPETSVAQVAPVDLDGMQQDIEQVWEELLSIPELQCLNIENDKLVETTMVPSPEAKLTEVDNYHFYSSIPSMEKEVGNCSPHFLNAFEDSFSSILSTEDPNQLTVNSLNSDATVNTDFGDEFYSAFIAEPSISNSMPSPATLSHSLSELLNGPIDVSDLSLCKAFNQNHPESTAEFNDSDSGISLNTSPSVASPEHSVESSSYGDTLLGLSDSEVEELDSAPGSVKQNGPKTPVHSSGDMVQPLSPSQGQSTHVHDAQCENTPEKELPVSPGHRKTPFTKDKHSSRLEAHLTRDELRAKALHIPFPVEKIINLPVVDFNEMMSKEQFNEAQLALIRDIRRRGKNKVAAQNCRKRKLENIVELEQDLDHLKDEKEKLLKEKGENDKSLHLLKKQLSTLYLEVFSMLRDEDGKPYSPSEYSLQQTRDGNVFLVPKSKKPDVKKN
Chain of Keap1/Nrf2 (Q14145 whole entry, the tested form may be a part): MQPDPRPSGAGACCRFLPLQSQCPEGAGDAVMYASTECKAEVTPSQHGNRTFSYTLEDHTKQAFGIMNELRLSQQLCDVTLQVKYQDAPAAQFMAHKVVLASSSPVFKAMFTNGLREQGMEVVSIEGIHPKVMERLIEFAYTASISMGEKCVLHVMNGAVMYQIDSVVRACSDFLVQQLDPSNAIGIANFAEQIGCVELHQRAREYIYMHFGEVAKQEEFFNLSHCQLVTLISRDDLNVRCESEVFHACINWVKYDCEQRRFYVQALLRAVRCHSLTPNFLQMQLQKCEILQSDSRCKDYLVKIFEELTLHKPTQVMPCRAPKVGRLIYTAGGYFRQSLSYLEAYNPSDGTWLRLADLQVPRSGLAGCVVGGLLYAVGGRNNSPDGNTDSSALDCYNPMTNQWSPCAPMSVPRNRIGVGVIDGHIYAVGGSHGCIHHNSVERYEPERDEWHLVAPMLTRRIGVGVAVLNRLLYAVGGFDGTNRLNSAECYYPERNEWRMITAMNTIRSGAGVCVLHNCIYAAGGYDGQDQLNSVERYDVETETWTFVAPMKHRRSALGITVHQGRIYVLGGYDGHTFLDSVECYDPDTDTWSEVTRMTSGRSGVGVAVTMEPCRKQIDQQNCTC

Compound: CNC(=O)CCc1nc(-c2ccccc2)no1
IC50 (HEK293 [3]): > 80 µM (inactive)
IC50 (Jurkat): > 79 µM (inactive)
IC50 (HEK293 [4]): > 80 µM (inactive)

Compound: CCCn1c(-c2cccs2)nc2c1c(=O)[nH]c(=O)n2Cc1ccccc1
EC50 [5]: > 99 µM (inactive)
EC50 [6]: > 99 µM (inactive)

Compound: O=C(Cn1nc(-c2ccccc2)c2ccccc21)N1CCc2ccccc2C1
AC50 (NIH3T3): 34.9 µM (active)

Compound: N#Cc1ccc(-c2ccco2)nc1SCC(=O)c1ccc(Cl)cc1
IC50 (CHO): 16.7 µM (inactive)
CC50 [13]: > 40 µM (active)
IC50 (Protein Tat): > 100 µM (active)
IC50 (Beta Lactamase): 10.1 µM (inactive)

Results, then the compound that gave them:

EC50 [1]: > 114 µM (inactive)
EC50 [2]: 66.9 µM (inactive)
Compound: O=C(O)c1sccc1SCc1ccc(Cl)cc1Cl

IC50 [7]: 7.32 µM (active)
IC50 [8]: 9.4 µM (active)
Compound: Cc1cc(N2CCCC(O)C2)nc2ccccc12 (centres undefined)

EC50 [9]: 9.02 µM (inconclusive)
AC50 (Keap1/Nrf2): 39.6 µM (active)
EC50 [10]: 9.61 µM (active)
Compound: Cc1cc(C)c[n+](-c2[n-]c(=O)sc2C=NN=C(S)Nc2ccccc2)c1

IC50 [11]: > 50 µM (not active)
IC50 [12]: 39.2 µM (active)
Compound: O=C(N/N=C/c1ccc(-c2ccccc2[N+](=O)[O-])o1)c1cccnc1
